Assay [1] concerns the target T1, N-lysine methyltransferase KMT5A (Homo sapiens) (UniProt Q9NQR1).
T1 sequence (whole entry): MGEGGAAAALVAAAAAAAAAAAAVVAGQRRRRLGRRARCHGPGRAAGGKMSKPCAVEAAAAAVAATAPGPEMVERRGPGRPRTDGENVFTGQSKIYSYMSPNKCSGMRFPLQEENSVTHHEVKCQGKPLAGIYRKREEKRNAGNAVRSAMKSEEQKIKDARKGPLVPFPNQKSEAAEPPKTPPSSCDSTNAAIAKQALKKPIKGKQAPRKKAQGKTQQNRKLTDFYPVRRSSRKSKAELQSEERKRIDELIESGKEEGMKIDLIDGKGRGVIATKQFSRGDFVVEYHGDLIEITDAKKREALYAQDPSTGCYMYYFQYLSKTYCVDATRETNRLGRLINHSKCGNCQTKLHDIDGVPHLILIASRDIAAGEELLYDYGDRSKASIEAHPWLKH
Description: Selectivity interaction (Methyltransferase screen (Scintillation proximity assays)) EUB0000255b SETD8. (SPA uses beads or plates that emit light when radiolabelled molecules are held near them.)

Assay [2] concerns the target T2, MAP/microtubule affinity-regulating kinase 4 (Homo sapiens) (UniProt Q96L34).
T2 sequence (whole entry): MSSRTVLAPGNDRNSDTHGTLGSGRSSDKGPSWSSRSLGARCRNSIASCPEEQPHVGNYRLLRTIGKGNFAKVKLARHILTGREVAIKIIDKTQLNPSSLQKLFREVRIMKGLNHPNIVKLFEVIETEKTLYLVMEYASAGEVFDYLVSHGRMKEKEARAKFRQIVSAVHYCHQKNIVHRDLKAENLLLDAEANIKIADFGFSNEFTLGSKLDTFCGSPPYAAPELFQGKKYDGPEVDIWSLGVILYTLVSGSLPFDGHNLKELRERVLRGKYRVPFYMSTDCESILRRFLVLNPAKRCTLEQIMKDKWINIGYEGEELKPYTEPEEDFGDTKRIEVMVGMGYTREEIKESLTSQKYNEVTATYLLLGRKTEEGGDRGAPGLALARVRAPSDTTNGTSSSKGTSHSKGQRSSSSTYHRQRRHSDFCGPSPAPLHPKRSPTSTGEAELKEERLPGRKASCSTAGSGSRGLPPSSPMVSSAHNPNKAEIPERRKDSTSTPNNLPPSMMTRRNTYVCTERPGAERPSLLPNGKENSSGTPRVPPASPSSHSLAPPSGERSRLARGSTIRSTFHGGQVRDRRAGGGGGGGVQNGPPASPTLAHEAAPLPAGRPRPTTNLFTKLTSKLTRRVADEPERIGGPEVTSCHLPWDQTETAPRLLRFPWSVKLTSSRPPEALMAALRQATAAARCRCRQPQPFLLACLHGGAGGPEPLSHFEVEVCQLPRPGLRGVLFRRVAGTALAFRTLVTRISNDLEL
The assay is described as follows: Selectivity interaction (KinomeScan (DiscoverX)) EUB0000695a MARK4. As to conditions: at 100 nM.

Assay [3] concerns the target Serine/threonine-protein kinase Chk2 (Homo sapiens) (UniProt O96017). Description: Selectivity interaction (SelectScreen profiling (Invitrogen)) EUB0000607a CHEK2. As to conditions: at 2 µM.
Assay [4] addresses T3, Non-receptor tyrosine-protein kinase TNK1 (Homo sapiens) (UniProt Q13470).
T3 sequence (whole entry): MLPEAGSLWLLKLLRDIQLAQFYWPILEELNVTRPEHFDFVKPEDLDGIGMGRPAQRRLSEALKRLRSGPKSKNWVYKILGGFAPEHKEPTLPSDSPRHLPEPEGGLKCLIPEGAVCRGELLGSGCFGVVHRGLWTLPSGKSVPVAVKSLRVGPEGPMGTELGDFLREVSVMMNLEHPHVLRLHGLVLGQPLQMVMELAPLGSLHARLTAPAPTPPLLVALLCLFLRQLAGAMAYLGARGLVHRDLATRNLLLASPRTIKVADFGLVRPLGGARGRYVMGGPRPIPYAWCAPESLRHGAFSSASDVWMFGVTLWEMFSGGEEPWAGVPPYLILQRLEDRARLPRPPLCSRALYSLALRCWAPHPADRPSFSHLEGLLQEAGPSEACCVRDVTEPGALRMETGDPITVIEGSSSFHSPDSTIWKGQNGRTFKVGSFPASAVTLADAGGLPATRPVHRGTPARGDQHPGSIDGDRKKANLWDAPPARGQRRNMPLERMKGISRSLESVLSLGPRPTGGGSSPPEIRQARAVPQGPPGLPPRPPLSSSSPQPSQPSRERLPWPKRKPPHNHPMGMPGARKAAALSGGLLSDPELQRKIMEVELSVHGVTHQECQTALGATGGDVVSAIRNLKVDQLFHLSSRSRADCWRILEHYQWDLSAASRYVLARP
Description: Selectivity interaction (KinomeScan (DiscoverX)) EUB0000618a TNK1. The following applies: at 10 µM.

The record followed here is ChEMBL document CHEMBL5465560, “Selectivity Literature for EUbOPEN Chemogenomic Library” (2024).

A value given as a limit tells only on which side of the number the result lay.

Serine/threonine-protein kinase Chk2 (Homo sapiens), sequence (O96017 whole entry): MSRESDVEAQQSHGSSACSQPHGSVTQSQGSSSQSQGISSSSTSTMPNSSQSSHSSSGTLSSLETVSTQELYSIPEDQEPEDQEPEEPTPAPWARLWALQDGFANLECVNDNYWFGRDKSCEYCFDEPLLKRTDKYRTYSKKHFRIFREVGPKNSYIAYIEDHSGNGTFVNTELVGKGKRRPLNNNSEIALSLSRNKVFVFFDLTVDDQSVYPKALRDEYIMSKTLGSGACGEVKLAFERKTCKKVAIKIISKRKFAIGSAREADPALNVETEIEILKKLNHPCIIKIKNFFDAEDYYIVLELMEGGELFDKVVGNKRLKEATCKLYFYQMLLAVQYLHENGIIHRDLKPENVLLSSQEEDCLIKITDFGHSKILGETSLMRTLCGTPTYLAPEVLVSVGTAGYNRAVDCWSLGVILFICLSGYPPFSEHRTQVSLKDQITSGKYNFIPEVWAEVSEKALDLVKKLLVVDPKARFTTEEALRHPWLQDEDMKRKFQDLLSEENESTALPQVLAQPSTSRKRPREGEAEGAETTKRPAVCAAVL

In the case of `COCCN1CCC(c2cc(CN(C)C(=O)c3cccc(Oc4ccccc4)c3)ccn2)CC1`, the % activity in assay [1] (at 1 µM) is over 95%; in assay [1] (at 10 µM), over 85%.

`Cc1cc(F)c(C(=O)Nc2cccc(-c3nncn3C(C)C)n2)cc1-n1cnc(C2CC2)c1`: the % of control in assay [2] stood at 100%.

`CNC(=O)Nc1ccc(-c2nc(N3CC4CCC(C3)O4)c3cnn(C4CCC5(CC4)OCCO5)c3n2)cc1` showed a % of inhibition in assay [3] of 3%.

In assay [4], `O[C@H]1CC[C@H](Nc2ncc3nc(Nc4c(F)cc(F)cc4F)n([C@H]4CCOC4)c3n2)CC1` came in with a % of control of 97%.
